In patent US7632662B2, “Compounds, compositions and methods for producing antioxidants from carnitine” (priority 2002, dated 2009):
Read-outs that look alike come from different tables or passages of the source.

What was measured:
rat brain = assay: Effect of ALCAR on in vitro 31P MRS brain metabolite and phospholipid levels under normoxia and brief hypoxia; assay type: in vivo, Fischer 344 rats; conditions: for PCr levels: non-significant; for Phosphatidylserine (PtdS) levels, change: p<0.01
Method: FIG. 4 is a block diagram illustrating an effect of ALCAR on in vitro ^31P MRS α-GP and PCr levels under hypoxic (30 seconds) and normoxic conditions in Fischer 344 rats.
FIG. 5 is a block diagram illustrating an effect of ALCAR on in vitro ^31P MRS phospholipid levels under hypoxic and normoxic conditions in Fischer 344 rats.
The rat brain responds differentially to brief energetic stress (30 seconds of hypoxia) depending on the age of the animal. The effect of ALCAR (75 mg/kg animal weight injected intraperitoneally 1 hour before sacrificing the animal) on both normoxic rat brain and rat brain exposed to brief hypoxia (30 seconds) was investigated (FIGS. x and x). These studies were conducted on aged rats (30 months) to provide possible insights into human aged brain and MDD.

[1] = test system: non-demented geriatric major depressive disorder (NDG-MDD) subjects; assay: Twelve-week open clinical study of ALCAR in geriatric major depressive disorder: HDRS, CIRS, side effects; assay type: in vivo, human; conditions: for HDRS score: oral
Excerpt: (§1) A twelve-week, open, clinical, ^31P MRSI study design was used to examine the possible effects of ALCAR on brain metabolism and depressive symptomatology in non-demented geriatric major depressive disorder (NDG-MDD). Two depressed, non-demented [Folstein Mini-Mental State Exam (MMSE)>24)] male subjects, were compared with six age, social-economic status, and medically matched non-demented controls (all male, mean age of 73.6±3.6 years, range 69.7-78.2 years). The two elderly depressed subjects completed baseline Structural Clinical Interview of DSM-IV (SCID) I/P version 2.0, HDRS (17 item), MMSE, UKU Side Effect Rating Scale (UKU), and Cumulative Illness Rating Scale (CIRS) to assess medical burden, baseline physical, ECG, and, laboratory tests for hematology, urine analysis, immunopathology, and blood chemistry. Follow-up visits for the depressed subjects were done every other week for 12 weeks. Efficacy (psychiatric evaluation) was assessed by changes in the HDRS which was performed at baseline and every other week for 12 weeks along with secondary measures (MMSE; CIRS; and UKU), whereas the CIRS was performed at baseline, 6, and 12 weeks. Physical examinations and EKGs were performed at baseline, 6, and 12 weeks. The baseline MR evaluation was scheduled and completed prior to the administration of ALCAR. Follow-up MR evaluations were at 6 and 12 weeks. Acetyl-L-carnitine was administered in the form of oral tablets containing 590 mg of acetyl-L-carnitine hydrochloride (500 mg acetyl-L-carnitine). The dosage regimen was fixed at three grams of acetyl-L-carnitine given two tablets three times a day for 12 weeks.
The statistical analysis was done using the Statview (SAS Institute, Inc.) software package. The pearson t correlation test used to correlate between variables.

[2] = test system: canine model of complete, global cerebral ischemia and reperfusion; conditions: versus vehicle-treated control animals; p=0.0037; Rosenthal et al. 1992; cited from earlier work
[3] = test system: geriatric depressed subjects; conditions: cited from earlier work; for day 60 HDRS: 3.0 gm/day
[4] = test system: brain PME(s-τc) and PCr levels; assay: 31P MRSI of brain metabolite levels in two depressed elderly subjects treated with ALCAR for 12 weeks; assay type: in vivo, human; conditions: for increase of prefrontal PCr levels with ALCAR treatment: prefrontal region
Excerpt: Phosphorus magnetic resonance spectroscopic imaging (^31P MRSI) analysis of two depressed elderly subjects treated with ALCAR for 12 weeks are compared with those of six normal non-demented, non-depressed subjects.
as §1
^31P MRSI acquisition—A custom built, doubly tuned transmit/receive volume head coil was used to acquire the ^1H MRI and 2D ^31P MRSI data on a GE Signa 1.5 T whole body MR imager. First, sets of axial and sagittal scout MR images were collected. […] A self-refocused spin echo pulse sequence with an effective flip range of 60° and an echo time of 2.5 ms, was used to acquire the ^31P MRSI (360 mm field of view, 30 mm slice thickness, 8×8 phase encoding steps [45×45×30 mm^3 nominal voxel dimensions], 2 s TR, 1024 data points, 4.0 kHz spectral bandwidth and 16 NEX).
MRSI post-processing and quantification—To optimize the right and left voxel positions for the six regions, the 8×8 ^31P grid was shifted with respect to the anatomical MRI and a mild spatial apodization (i.e., Fermi window with 90% diameter and 5% transition width) was applied prior to the inverse Fourier transform. The remaining processing steps were 100% automated. A 5 Hz exponential apodization was applied and the PME, phosphodiester (PDE), PCr, α-, γ-, and β-ATP, and inorganic orthophosphate (Pi), were modeled in the time domain with exponentially damped sinusoids and by omitting the first 2.75 ms of the free induction decay (FID) using the Marquardt-Levenberg algorithm. This approach ensured that the PME and PDE resonances primarily reflected the freely mobile, short correlation time (s-τc), water soluble PME(s-τc) and PDE(s-τc) metabolites without the influence of relatively broad underlying signals within the PME and PDE spectral region. […]

brain PME levels = assay: In vivo 31P MRSI in two young subjects with MDD; design: species or system human; conditions: 2 young MDD subjects; treatment with ALCAR
Excerpt: As part of an ongoing ^31P-^1H MRSI study of never-medicated, first-episode schizophrenia subjects three ^31P MRSI spectra on 2 MDD subjects (1 person, 1 person, 24∀2.3 years) were obtained. The MDD spectral results are compared with those obtained from 13 controls (6 males; 3 white, 2 African-American, 1 Asian and 7 females; 4 white, 3 African-American; 21∀1.0 years). PME levels in the MDD subjects were increased by approximately 15% (p=0.13) while there were decreases in the levels of PDE (approx. −7%; p=0.08), PCr (approx. −5%, p=0.61), and β-ATP (approx. −3%, p=0.87) (FIG. 6). Treatment with ALCAR lowered PME levels in the MDD subjects.

Aβ(1-40) peptide = biological target: T1, Aβ(1-40) peptide (Homo sapiens, UniProt P05067); assay: Acetylation of Aβ(1-40) peptide by ALCAR; assay type: biochemical
T1 construct: the Aβ(1-40) peptide derived from the ubiquitous protein, amyloid precursor protein
T1 sequence (P05067 672-711 limits assumed): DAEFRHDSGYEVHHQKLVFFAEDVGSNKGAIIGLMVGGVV

CC(=O)O[C@H](CC(=O)[O-])C[N+](C)(C)C [ALCAR, acetyl-L-carnitine]
Cardiolipin levels (rat brain; ALCAR/hypoxia): non-significantly reduced
α-GP levels, change compared with controls (rat brain; ALCAR/hypoxia (30 seconds), aged rats (30 months), 75 mg/kg i.p., p=0.01): approximately +80%
PCr levels (rat brain; ALCAR/hypoxia, p=0.07): decrease
Phosphatidylserine (PtdS) levels, change (rat brain; ALCAR/hypoxic): approx. −75%
Cardiolipin levels (rat brain; ALCAR/normoxia): unchanged
α-GP levels (rat brain; ALCAR/normoxia, aged rats (30 months), 75 mg/kg intraperitoneally 1 hour before sacrifice): did not alter
PCr levels (rat brain; ALCAR/normoxia): increase
Phosphatidylserine (PtdS) levels, change (rat brain; ALCAR/normoxia): approx. −50%
Side effects from ALCAR treatment ([1]; both depressed subjects, 12 weeks, three grams per day): mild
laboratory exams and EKG ([1]; either depressed subject): No clinically significant abnormalities
Side effects from ALCAR treatment ([1]; subject #1): dry mouth
CIRS ([1]; subject #1, 6 weeks, baseline 7): 6
HDRS score ([1]; subject #1, 6 weeks, baseline 15, three grams acetyl-L-carnitine per day): 1
CIRS ([1]; subject #1, 12 weeks, baseline 7): 5
HDRS score ([1]; subject #1, 12 weeks, baseline 15, three grams per day): 0
Side effects from ALCAR treatment ([1]; subject #2): slight increase in perspiration
CIRS ([1]; subject #2, 6 weeks, baseline 4): 4
HDRS score ([1]; subject #2, 6 weeks, baseline 20, three grams per day): 17
CIRS ([1]; subject #2, 12 weeks, baseline 4): 2
HDRS score ([1]; subject #2, 12 weeks, baseline 20, three grams per day): 3
neurological deficit scores [2]: significantly lower
day 60 HDRS ([3]; Bella et al. 1990, baseline HDRS 22, placebo day 60 = 20): 11
day 60 HDRS ([3]; Fulgente et al. 1990, baseline HDRS 25, placebo day 60 = 22): 12
HDRS ([3]; Garzya et al. 1990, 1.5 gm/day, ages 70-80 years): significant beneficial effects
mean cortisol levels and 12 am and 4 pm cortisol levels ([3]; Gecele et al. 1991, 2 gm/day, p<0.001, p<0.001, p<0.01): significant reduction
HDRS ([3]; Gecele et al. 1991, 2 gm/day, p<0.001): significant improvement
HDRS scores ([3]; Nasca et al. 1989, day 40 of treatment, baseline HDRS 44.9, p<0.001): significant improvement
side effects ([3]; Tempesta et al. 1987, 2 gm/day): no reported ALCAR side effects
HDRS scores ([3]; Tempesta et al. 1987, open label cross over, 2 gm/day, subjects over 70 years): highly effective
side effects ([3]; Villardita et al. 1983, 1.5 gm/day, 40 days): no side effects
Hamilton Depressive Rating Scale (HDRS) ([3]; Villardita et al. 1983, 1.5 gm/day, day 40, baseline HDRS 26.3, p<0.001): significant improvement
tolerability ([3]; randomized double-blind studies, even at the higher dosages (up to 3.0 gm/day)): well tolerated
PME(s-τc) levels in the superior temporal regions ([4]; after 12 weeks of ALCAR treatment, compared with normal subjects, p=0.05): elevated
PCr levels in the prefrontal, basal ganglia and occipital regions ([4]; after 12 weeks of ALCAR treatment, compared with normal subjects, p=0.001, 0.022, 0.027): elevated
prefrontal PME(s-τc) levels ([4]; baseline 1.5 to 2.0 SD higher than mean of controls, with ALCAR treatment): normalized
increase of prefrontal PCr levels with ALCAR treatment ([4]; first of the two depressed subjects (respectively)): 27%
increase of prefrontal PCr levels with ALCAR treatment ([4]; second of the two depressed subjects (respectively)): 31%
PME levels in the MDD subjects (brain PME levels): lowered
acetylation of the Aβ(1-40) peptide (Aβ(1-40) peptide): can acetylate lysine 28
